Data published in paper PMC6270994, “The Hydractinia echinata Test-System. III: Structure-Toxicity Relationship Study of Some Azo-, Azo-Anilide, and Diazonium Salt Derivatives” (Molecules, 2014).

The compounds below were run on Hydractinia echinata (assay: Hydractinia echinata test system (HeTS): reduction of Cs+-induced metamorphosis of larvae). Conditions: Hydractinia echinata, read-out: F(1), F(2),... individual log(1/MRC50) toxicity value (converted).
Type: in vivo
Protocol: The average (C) concentrations of these values were calculated too. The MRC50 value calculations (Chicu et al.) result from the graphical representation of the metamorphosis variation, M (%), (Y axis) function of the xenobiotic’s concentration (mol/L) (X axis), where the metamorphosis decreases with the rise of the xenobiotic’s concentration. Thus, the MRC50 value represents the xenobiotic’s concentration (mol/L) necessary for a 50% decrease of metamorphosis, with respect to control.
For each concentration of substance experiments were performed in triplicate and were repeated at least twice.
Colonies of H. echinata (Biologische Anstalt, Helgoland, Germany) were used to obtain eggs and larvae. The culture medium was artificial seawater (980 mosmol, pH 8.2, 18 °C). In laboratory an artificial metamorphosis can be synchronically started by the introduction of Cs^+ ions or by using seawater without Mg^2+ ions; it then lasts only 24 h. Under the action of external stimulus of Cs^+ ions or Cs^+ ions together with the tested compounds, one part of larvae further lives as such and another one is metamorphosized to the polyp form. The evaluation of the influence of the tested substance is very clear this way, the proposed method being based on this aspect.
H. echinata larvae were exposed to seawater containing Cs^+ and simultaneously one of the test substances for 3 h. The percentage of animals that underwent metamorphosis (development into polyps) was determined after 24 h. […] We chose a concentration of inducers which caused about […] to three quarters of the larvae to metamorphose in order to have conditions which are highly sensitive against an inhibitory influence. […] This concentration was termed MRC50 (for Metamorphosis Reduction Concentration) and is similar to the effective EC50 concentration that gives half maximal effective response.

Compound | EC50 [µM]
Nc1ccc(C(=O)O)c(O)c1 [Ac p-AmS, p-aminosalicylic acid] | 1070

Same assay, conditions: Hydractinia echinata; MRC50 in mol/L = concentration for 50% decrease of metamorphosis vs control; larvae exposed 3 h with Cs+, read after 24 h; read-out: M: experimental Mlog(1/MRC50) (converted)

Compound | EC50 [µM]
Cc1[nH]n(-c2ccc(S(=O)(=O)O)cc2)c(=O)c1N=Nc1ccc(NC(=O)c2ccc(N=Nc3c(C)[nH]n(-c4ccc(S(=O)(=O)O)cc4)c3=O)cc2)cc1 [Compound 112, 4-(3-Methyl-4-{2-[4-(4-{2-[5-methyl-3-oxo-2-(4-sulfophenyl)-2,3-dihydro-1H-pyrazol-4-yl]diazen-1-yl}-benzamido)phenyl]-diazen-1-yl}-5-oxo-2,5-dihydro-1H-pyrazol-1-yl)benzene-1-sulfonic acid] | 95.5
O=C(O)c1cc(N=Nc2ccc(C=Cc3ccc(N=Nc4ccc(O)cc4C(=O)O)cc3S(=O)(=O)O)c(S(=O)(=O)O)c2)ccc1O [Compound 98, 2-{2-[4-(2-{4-[2-(3-Carboxy-4-hydroxy-phenyl)diazen-1-yl]-2-sulfophenyl}ethenyl)-3-sulfophenyl]diazen-1-yl}-5-hydroxybenzoic acid] | 407
O=C(O)c1cc2ccccc2c(N=Nc2ccc(C=Cc3ccc(N=Nc4c(O)c(C(=O)O)cc5ccccc45)cc3S(=O)(=O)O)c(S(=O)(=O)O)c2)c1O [Compound 101, 4-{2-[4-(2-{4-[2-(3-Carboxy-2-hydroxy-naphthalen-1-yl)diazen-1-yl]-2-sulfophenyl}-ethenyl)-3-sulfo-phenyl]diazen-1-yl}-3-hydroxynaphthalene-2-carboxylic acid] | 135
Cc1cc(-c2ccc(/N=N/c3ccc4c(S(=O)(=O)O)cc(S(=O)(=O)O)c(N)c4c3O)c(C)c2)ccc1/N=N/c1ccc2c(S(=O)(=O)O)cc(S(=O)(=O)O)c(N)c2c1O [Compound 89, Direct Blue 53 (Evans Blue)] | 7.41
O=S(=O)(O)c1cc(N=Nc2c(O)ccc3ccccc23)ccc1C=Cc1ccc(N=Nc2c(O)ccc3ccccc23)cc1S(=O)(=O)O [Compound 100, 5-[2-(2-Hydroxy-naphthalen-1-yl)diazen-1-yl]-2-(2-{4-[2-(2-hydroxynaphthalen-1-yl)diazen-1-yl]-2-sulfophenyl}ethenyl)-benzene-1-sulfonic acid] | 28.2
COc1cc(-c2ccc(-n3nc(-c4ccccc4)n[n+]3-c3ccccc3)c(OC)c2)ccc1-n1nc(-c2ccccc2)n[n+]1-c1ccccc1 [Compound 95, Tetrazolium Blue Chloride] | 91.2
Nc1ccc(/N=N/c2ccccc2C(=O)O)cc1C(=O)O [Compound 5, 2-Amino-5-[(E)-2-(2-carboxyphenyl)diazen-1-yl]benzoic acid] | 26.3
Nc1ccc2cc(S(=O)(=O)O)c(N=Nc3ccc(NC(=O)c4ccc(N=Nc5ccc(O)c(C(=O)O)c5)cc4)cc3)c(O)c2c1 [Compound 108, 5-{2-[4-({4-[2-(7-Amino-1-hydroxy-3-sulfonaphthalen-2-yl)diazen-1-yl]-phenyl}carbamoyl)-phenyl]diazen-1-yl}-2-hydroxybenzoic acid] | 214
Nc1c(N=Nc2ccc(C=Cc3ccc(N=Nc4cc(S(=O)(=O)O)c5ccccc5c4N)cc3S(=O)(=O)O)c(S(=O)(=O)O)c2)cc(S(=O)(=O)O)c2ccccc12 [Compound 102, 4-Amino-3-{2-[4-(2-{4-[2-(1-amino-4-sulfonaphthalen-2-yl)diazen-1-yl]-2-sulfophenyl}ethenyl)-3-sulfophenyl]diazen-1-yl}naphthalene-1-sulfonic acid] | 182
Nc1c(N=Nc2ccc([N+](=O)[O-])cc2)c(S(=O)(=O)O)cc2cc(S(=O)(=O)O)c(N=Nc3ccc(NC(=O)c4ccc(N=Nc5ccc(O)c(C(=O)O)c5)cc4)cc3)c(O)c12 [Compound 113, 5-[2-(4-{[4-(2-{8-Amino-1-hydroxy-7-[2-(4-nitrophenyl)diazen-1-yl]-3,6-disulfonaphthalen-2-yl}diazen-1-yl)-phenyl]carbamoyl}-phenyl)diazen-1-yl]-2-hydroxybenzoic acid] | 112
Nc1c(/N=N/c2ccc(-c3ccc(/N=N/c4cc(S(=O)(=O)O)c5ccccc5c4N)cc3)cc2)cc(S(=O)(=O)O)c2ccccc12 [Compound 82, Congo Red] | 32.4
Cc1ccc(N=Nc2ccc([N+](=O)[O-])cc2)c(O)c1 [Compound 20, 5-Methyl-2-[2-(4-nitrophenyl)-diazen-1-yl]phenol] | 77.6
Nc1ccc2cc(S(=O)(=O)O)c(N=Nc3ccc(NC(=O)c4ccc(N=Nc5ccc(O)c(C(=O)Nc6ccccc6)c5)cc4)cc3)c(O)c2c1 [Compound 121, 6-Amino-4-hydroxy-3-{2-[4-(4-{2-[4-hydroxy-3-(phenyl-carbamoyl)phenyl]diazen-1-yl}benzamido)-phenyl]diazen-1-yl}naphthalene-2-sulfonic acid] | 31.6

Same assay, conditions: Hydractinia echinata; parent dye, Table 2; read-out: F(1+2+...)e experimental toxicity log(1/MRC50) (converted)

Compound | EC50 [µM]
Cc1ccc(N=Nc2ccc([N+](=O)[O-])cc2)c(O)c1 [Compound 20, 5-Methyl-2-[2-(4-nitrophenyl)-diazen-1-yl]phenol] | 77.6

Same assay, conditions: MRC50 in mol/L = concentration for 50% decrease of metamorphosis vs control; larvae exposed 3 h with Cs+, read after 24 h

Compound | M: experimental Mlog(1/MRC50)
Bordo Direct AN [Compound 81] | 3.86
Nc1c(N=Nc2ccc([N+](=O)[O-])cc2)c(S(=O)(=O)[O-])cc2cc(S(=O)(=O)[O-])c(N=Nc3ccccc3)c(O)c12.[Na+].[Na+] [Compound 75, Acid Black 1 (Salt)] | 4.41
Nc1ccc(N=Nc2ccc(-c3ccc(N=Nc4c(S(=O)(=O)[O-])cc5cc(S(=O)(=O)[O-])c(N=Nc6ccccc6)c(O)c5c4N)cc3)cc2)c(N)c1.[Na+].[Na+] [Compound 83, Direct Black 38] | 4.26
O=S(=O)([O-])c1ccc(N=Nc2ccc(N=Nc3c(O)c(S(=O)(=O)[O-])cc4cc(S(=O)(=O)[O-])ccc34)c(S(=O)(=O)[O-])c2)cc1.[Na+].[Na+].[Na+].[Na+] [Compound 69, Ponceau S] | 3.97
O=S(=O)([O-])c1cc(N=Nc2ccc(O)cc2)ccc1/C=C/c1ccc(N=Nc2ccc(O)cc2)cc1S(=O)(=O)[O-].[Na+].[Na+] [Compound 96, Brilliant Yellow] | 3.84
Cc1cccc(N=Nc2ccc(N=Nc3c(O)ccc4ccccc34)cc2C)c1 [Compound 64, Solvent Red 25 (Sudan Red B)] | 3.42
O=S(=O)([O-])c1ccc(N=Nc2ccc(N=Nc3c(O)ccc4ccccc34)c(S(=O)(=O)[O-])c2)cc1.[Na+].[Na+] [Compound 68, Acid Red 66 (Biebrischer Scharlach)] | 3.95
O=S(=O)([O-])c1cccc(N=Nc2ccc(Nc3ccccc3)cc2)c1.[Na+] [Compound 12, Metanil Yellow (sodium salt)] | 4.17
CC(=O)Nc1cc(S(=O)(=O)[O-])cc2cc(S(=O)(=O)[O-])c(N=Nc3ccccc3)c(O)c12.[Na+].[Na+] [Compound 42, Acid Red 1 (Azophloxin)] | 3.66
Nc1c(N=Nc2ccc([N+](=O)[O-])cc2)c(S(=O)(=O)[O-])cc2cc(S(=O)(=O)[O-])c(N=Nc3ccccc3)c(O)c12.[Na+].[Na+] [Compound 74, Acid Black 1 (Amido Black 10B)] | 4.33

Same assay, conditions: parent dye, Table 2

Compound | F(1+2+...)e experimental toxicity log(1/MRC50)
O=S(=O)([O-])c1cc(N=Nc2ccc(O)cc2)ccc1/C=C/c1ccc(N=Nc2ccc(O)cc2)cc1S(=O)(=O)[O-].[Na+].[Na+] [Compound 96, Brilliant Yellow] | 3.84

Same assay, conditions: product of enzymatic reduction/hydrolysis of the dye

Compound | F(1), F(2),... individual log(1/MRC50) toxicity value
Nc1ccc(S(=O)(=O)O)cc1 [APABS, p-aminobenzenesulfonic acid] | 2.81
2-Aminocresol | 3.21
